Results: patent publication US8722937B2 (priority 2006, dated 2014)
Values after ≈ are worked out from the molar mass of the structure shown. Read-outs that look alike come from different tables or passages of the source. Marks after values point to notes of the source that are not given here.

Assays:
[1] = tested on: B. anthracis; details: cited from earlier work
[2] = target: FabH derived from M. tuberculosis (mtFabH) (Mycobacterium tuberculosis, UniProt P9WNG3); details: 10 µM
[3] = target: T1, FabH derived from E. coli (ecFabH) (Escherichia coli, UniProt P0A6R0); assay: FabH enzyme assay (coupled trichloroacetic acid precipitation assay), ecFabH; format: biochemical
T1 construct: polyhistidine (N); made in house; host or cells: E. coli
T1 sequence (P0A6R0 1-317): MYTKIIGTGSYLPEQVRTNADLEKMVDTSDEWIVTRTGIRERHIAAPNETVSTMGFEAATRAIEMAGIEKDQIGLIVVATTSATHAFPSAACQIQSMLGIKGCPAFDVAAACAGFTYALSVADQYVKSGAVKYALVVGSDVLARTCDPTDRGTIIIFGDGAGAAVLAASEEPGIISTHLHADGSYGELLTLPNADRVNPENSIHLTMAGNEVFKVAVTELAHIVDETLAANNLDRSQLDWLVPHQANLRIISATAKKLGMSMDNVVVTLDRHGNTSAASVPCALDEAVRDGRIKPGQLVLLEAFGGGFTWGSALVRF

[4] = tested on: MRSA (ATCC 43300); details: cited from earlier work
[5] = tested on: S. aureus (ATCC 25923); details: MSSA ATCC 25923; data from ref. 6 (PenG, 2g) or ref. 52 (vancomycin); cited from earlier work
[6] = tested on: methicillin-resistant S. aureus (MRSA); details: MRSA ATCC 43300; data taken from ref. 6; cited from earlier work
[7] = tested on: S. aureus (ATCC 25923); details: MSSA ATCC 25923; data taken from ref. 6; cited from earlier work
[8] = tested on: S. aureus (ATCC 25923); assay: Agar dilution minimum inhibitory concentration (MIC), S. aureus; format: cell-based, Staphylococcus aureus
[9] = tested on: MRSA (ATCC 43300); assay: Minimum inhibitory concentration (MIC), MRSA; format: cell-based, Staphylococcus aureus
[10] = tested on: S. aureus (ATCC 25923); assay: microbe, parasite or virus in culture; format: cell-based, Staphylococcus aureus; details: for zone of inhibition at 20 µg/disc: Staphylococcus aureus, ATCC25923, 24 h, 37° C.
[11] = tested on: methicillin-resistant S. aureus (MRSA); assay: microbe, parasite or virus in culture; format: cell-based, Staphylococcus aureus
[12] = tested on: M. tuberculosis; details: reported by Jones et al.; cited from earlier work
[13] = tested on: B. anthracis (USF 848); assay: microbe, parasite or virus in culture; format: cell-based, Bacillus anthracis; details: Bacillus anthracis, read-out: Minimum inhibitory concentration (MIC) against B. anthracis (USF 848)
[14] = tested on: E. coli (K12; ATCC 23590); assay: Kirby-Bauer zones of inhibition, E. coli; format: cell-based, Escherichia coli; details: K12 strain, ATCC 23590
[15] = tested on: B. anthracis (USF 848); assay: microbe, parasite or virus in culture; format: cell-based, Bacillus anthracis; details: Bacillus anthracis, 24 h, 37° C.
[16] = tested on: E. coli (K12; ATCC 23590); assay: Minimum inhibitory concentration (MIC), E. coli; format: cell-based; details: Escherichia coli, ATCC23590, read-out: MIC (μg/mL) against E. coli
[17] = MRSA ATCC 43300, data taken from ref. 6

Chain of FabH derived from M. tuberculosis (mtFabH) (P9WNG3 whole entry): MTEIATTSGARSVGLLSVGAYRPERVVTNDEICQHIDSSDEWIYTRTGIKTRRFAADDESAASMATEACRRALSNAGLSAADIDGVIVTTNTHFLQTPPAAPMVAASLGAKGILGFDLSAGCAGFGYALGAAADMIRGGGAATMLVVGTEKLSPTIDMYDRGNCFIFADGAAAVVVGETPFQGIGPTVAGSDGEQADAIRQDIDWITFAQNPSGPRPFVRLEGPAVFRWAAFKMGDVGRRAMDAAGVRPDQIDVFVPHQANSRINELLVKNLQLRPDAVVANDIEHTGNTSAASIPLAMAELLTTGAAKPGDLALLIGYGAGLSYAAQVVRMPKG

Question: For `O=C(O)c1cn(C2CC2)c2cc(N3CCNCC3)c(F)cc2c1=O` [Ciprofloxacin], which “reported value for Ciprofloxacin (for 50% growth inhibition)” value [1] is on record?
Answer: Its value is 0.094.

Question: Which “Percent inhibition of mtFabH” value [2] does the source give for `CCC(C)SN1C(=O)C(OC)C1c1ccccc1Cl` (centres unmarked) [Compound 2g] here?
Answer: The value was 4%.

Question: And the “Percent inhibition of ecFabH” value ([3]; 1 μM of test compound)?
Answer: The value was 30%.

Question: And the “MIC (MRSA)” value [4, 17]?
Answer: The value was 0.25 µg/mL (≈ 0.834 µM).

Question: And the “MIC (MSSA)” value [5]?
Answer: Its value is 0.25 µg/mL (≈ 0.834 µM).

Question: And the “Zone (MRSA)” value [6]?
Answer: The value was 34 mm.

Question: And the “Zone (MSSA)” value [7]?
Answer: The value was 32^c mm.

Question: What does the source list for `CSN1C(=O)OCC1c1ccccc1` (centres unmarked) [Compound 13, reference compound]?
Answer: MIC (MSSA) ([8]; MSSA ATCC 25923): 4 µg/mL (≈ 19.1 µM); MIC (MRSA) [9]: 8 µg/mL (≈ 38.2 µM); Zone (MSSA) [10]: 29 mm; Zone (MRSA) [11]: 28 mm

Question: With `CC(C)CCCCCCCS(=O)(=O)CC(N)=O` [Compound 30] as the molecule, how does the “activity against M. tuberculosis, in words” value [12] read?
Answer: The value was “good activity”.

Question: Which MIC ([8]; Staphylococcus aureus, ATCC25923, serial dilution in 24-well plate, NCCLS, read-out: Minimum inhibitory concentration (MIC) against S. aureus (ATCC 25923)) does the source give for `CSSc1ccc([N+](=O)[O-])cc1` [Compound 38a, p-Nitrophenyl Methyl Disulfide] here?
Answer: The MIC was 16 µg/mL (≈ 79.5 µM).

Question: What about the MIC [13] of the same molecule?
Answer: The MIC was 0.25 µg/mL (≈ 1.24 µM).

Question: What about the zone of inhibition at 20 µg/disc ([10]; read-out: Zones of growth inhibition of S. aureus (ATCC 25923)) of the same molecule?
Answer: The zone of inhibition at 20 µg/disc was 30 mm.

Question: And the zone of inhibition at 20 µg/disc ([10]; read-out: Zones of growth inhibition of S. aureus (ATCC 25923), areas of partial inhibition)?
Answer: The zone of inhibition at 20 µg/disc was 35 mm.

Question: What about the melting point of the same molecule?
Answer: The melting point was 29 to 32 °C.

Question: And the “Zone of Inhibition (mm), E. coli, zones of partial inhibition” value ([14]; number in parentheses)?
Answer: The value was 24 mm.

Question: What about the “Zone of Inhibition (mm), E. coli” value ([14]; number outside parentheses) of the same molecule?
Answer: Its value is 17 mm.

Question: And the inhibition at 5 µM ([3]; 5 μM of test compound, read-out: Percent inhibition of FabH derived from E. coli, ecFabH (%))?
Answer: The inhibition at 5 µM was 94%.

Question: What about the zone of inhibition at 20 µg/disc ([15]; read-out: Zones of growth inhibition of B. anthracis (USF 848)) of the same molecule?
Answer: Its zone of inhibition at 20 µg/disc is 47 mm.

Question: And the zone of inhibition at 20 µg/disc ([15]; read-out: Zones of growth inhibition of B. anthracis (USF 848), areas of partial growth inhibition)?
Answer: Its zone of inhibition at 20 µg/disc is 54 mm.

Question: And the zone of inhibition at 20 µg/disc ([11]; Staphylococcus aureus, MRSA, 24 h, 37° C., read-out: Average zones of growth inhibition of MRSA (USF-652-659, 919-920))?
Answer: Its zone of inhibition at 20 µg/disc is 23 mm.

Question: What about the MIC [16] of the same molecule?
Answer: Its MIC is 16 µg/mL (≈ 79.5 µM).

Question: What does the source list for `CC1(C)S[C@@H]2[C@H](NC(=O)Cc3ccccc3)C(=O)N2[C@H]1C(=O)O` [PenG., penicillin G, reference compound]?
Answer: MIC (MRSA) [4, 17]: 64 µg/mL (≈ 191 µM); MIC (MSSA) [5]: 0.03 µg/mL (≈ 0.0897 µM); Zone (MRSA) [6]: 14 mm; Zone (MSSA) [7]: 33 mm

Question: Which “Zone (MSSA)” value [10] does the source give for `CN[C@H](CC(C)C)C(=O)N[C@H]1C(=O)N[C@@H](CC(N)=O)C(=O)N[C@H]2C(=O)N[C@H]3C(=O)N[C@H](C(=O)N[C@H](C(=O)O)c4cc(O)cc(O)c4-c4cc3ccc4O)[C@H](O)c3ccc(c(Cl)c3)Oc3cc2cc(c3O[C@@H]2O[C@H](CO)[C@@H](O)[C@H](O)[C@H]2O[C@H]2C[C@](C)(N)[C@H](O)[C@H](C)O2)Oc2ccc(cc2Cl)[C@H]1O` [Vanc., Vancomycin, reference compound] here?
Answer: Its value is 27 mm.

Question: And the “MIC (MRSA)” value ([4]; MRSA 67, as reported by ref. 52)?
Answer: Its value is 0.39^d μg/mL.

Question: And the “MIC (MSSA)” value [5]?
Answer: The value was 0.78^d μg/mL.

Question: And the “Zone (MRSA)” value [11]?
Answer: Its value is 22 mm.
